From patent US9725465B2, “Biaryl acetamide compounds and methods of use thereof” (Ambit Biosciences Corporation, priority 2013, dated 2017)

Legend:
[1] = target: FLT3 kinase (Homo sapiens (Human), UniProt P36888); assay: Competition binding assay (Kd), FLT3; conditions: competition binding assay
[2] = target: KIT kinase (Homo sapiens (Human), UniProt P10721); assay: Competition binding assay (Kd), KIT; conditions: competition binding assay
Experimental: In certain embodiments, competition binding assays were performed as described in Fabian et al., Nature Biotechnology 2005, 23, 329-336.
Competition binding assays used herein were developed, validated and performed as described in Fabian et al., Nature Biotechnology 2005, 23, 329-336. Kinases were produced as fusions to T7 phage (See, Fabian et al. or WO04/015142) or alternatively, the kinases were expressed in HEK-293 cells and subsequently tagged with DNA for PCR detection (See, WO08/005,310). […] The liganded beads were blocked with excess biotin and washed with blocking buffer (SeaBlock (Pierce), 1% BSA, 0.05% Tween 20, 1 mM DTT) to remove unbound ligand and to reduce non-specific binding. […] Test compounds were prepared as 100× stocks in DMSO and diluted into the aqueous environment. Kds were determined using an eleven point threefold serial dilutions. DMSO or control compounds were was added to control assays lacking a test compound. […] The kinase concentration in the eluates was measured by quantitative PCR. […]

KIT kinase, sequence (P10721 26-976): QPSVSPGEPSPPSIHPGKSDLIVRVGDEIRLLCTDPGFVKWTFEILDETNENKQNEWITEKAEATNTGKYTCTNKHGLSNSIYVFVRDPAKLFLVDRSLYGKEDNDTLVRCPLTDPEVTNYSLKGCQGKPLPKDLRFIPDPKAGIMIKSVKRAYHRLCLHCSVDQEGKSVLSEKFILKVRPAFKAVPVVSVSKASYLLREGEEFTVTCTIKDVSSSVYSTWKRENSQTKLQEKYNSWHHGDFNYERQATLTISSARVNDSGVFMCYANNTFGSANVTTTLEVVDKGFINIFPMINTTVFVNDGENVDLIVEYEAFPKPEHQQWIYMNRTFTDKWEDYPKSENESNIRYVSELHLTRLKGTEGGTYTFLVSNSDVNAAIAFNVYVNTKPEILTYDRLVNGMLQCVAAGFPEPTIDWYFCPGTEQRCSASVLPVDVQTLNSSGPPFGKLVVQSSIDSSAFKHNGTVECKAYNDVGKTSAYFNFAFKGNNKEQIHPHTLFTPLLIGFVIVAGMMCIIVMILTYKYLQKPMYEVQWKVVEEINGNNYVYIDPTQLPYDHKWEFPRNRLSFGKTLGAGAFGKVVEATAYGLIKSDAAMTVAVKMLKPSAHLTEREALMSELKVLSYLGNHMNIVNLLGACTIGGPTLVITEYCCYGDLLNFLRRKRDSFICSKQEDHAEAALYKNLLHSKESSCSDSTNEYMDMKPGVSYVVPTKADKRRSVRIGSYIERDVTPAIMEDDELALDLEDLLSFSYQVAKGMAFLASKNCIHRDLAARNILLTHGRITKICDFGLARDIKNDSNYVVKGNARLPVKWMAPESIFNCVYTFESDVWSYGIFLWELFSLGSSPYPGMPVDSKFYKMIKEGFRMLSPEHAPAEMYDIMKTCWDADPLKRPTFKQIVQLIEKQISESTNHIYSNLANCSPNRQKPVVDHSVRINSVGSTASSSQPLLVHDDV
FLT3 kinase, sequence (P36888 27-993): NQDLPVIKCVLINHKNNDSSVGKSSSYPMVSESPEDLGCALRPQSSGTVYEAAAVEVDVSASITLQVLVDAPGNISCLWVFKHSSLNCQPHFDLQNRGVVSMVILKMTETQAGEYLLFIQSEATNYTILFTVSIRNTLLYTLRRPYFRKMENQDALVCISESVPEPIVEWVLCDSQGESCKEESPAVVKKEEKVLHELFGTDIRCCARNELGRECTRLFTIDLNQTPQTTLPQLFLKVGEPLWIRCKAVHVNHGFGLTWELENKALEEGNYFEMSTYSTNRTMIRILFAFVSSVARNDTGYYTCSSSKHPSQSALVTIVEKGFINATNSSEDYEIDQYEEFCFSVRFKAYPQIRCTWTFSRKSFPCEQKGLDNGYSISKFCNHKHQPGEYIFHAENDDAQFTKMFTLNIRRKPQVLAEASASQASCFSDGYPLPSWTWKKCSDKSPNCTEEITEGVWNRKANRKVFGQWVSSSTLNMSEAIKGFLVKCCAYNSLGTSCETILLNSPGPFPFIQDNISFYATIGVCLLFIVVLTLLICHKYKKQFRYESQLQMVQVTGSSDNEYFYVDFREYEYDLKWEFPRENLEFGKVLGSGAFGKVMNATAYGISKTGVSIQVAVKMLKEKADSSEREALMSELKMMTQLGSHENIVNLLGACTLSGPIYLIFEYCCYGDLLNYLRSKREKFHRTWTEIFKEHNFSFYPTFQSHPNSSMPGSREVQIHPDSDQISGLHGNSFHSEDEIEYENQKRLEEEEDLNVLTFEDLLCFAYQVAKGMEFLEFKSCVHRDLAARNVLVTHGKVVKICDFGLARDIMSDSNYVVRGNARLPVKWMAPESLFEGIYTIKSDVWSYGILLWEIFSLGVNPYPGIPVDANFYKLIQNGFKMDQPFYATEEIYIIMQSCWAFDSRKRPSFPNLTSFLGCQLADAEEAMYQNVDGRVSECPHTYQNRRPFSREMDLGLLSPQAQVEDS

Kd [1] [nM]	Kd [2] [nM]	Structure (SMILES)
< 5	< 5	COc1cc2ncc(-c3ccc(CC(=O)Nc4cc(C(C)(C)C(F)(F)F)on4)c(F)c3)cc2cc1OCCN1CC[C@H](O)[C@@H](F)C1 (stereo in doubt) [Example 87, 2-(2-Fluoro-4-{6-[2-(3-fluoro-4-hydroxy-piperidin-1-yl)-ethoxy]-7-methoxy-quinolin-3-yl}-phenyl)-N-[5-(2,2,2-trifluoro-1,1-dimethyl-ethyl)-isoxazol-3-yl]-acetamide]
< 5	< 5	Nc1nc2ccccc2nc1-c1ccc(CC(=O)Nc2cc(C3(C(F)(F)F)CC3)on2)cc1 [Example 7, 2-(4-(3-aminoquinoxalin-2-yl)phenyl)-N-(5-(1-(trifluoromethyl)cyclopropyl)isoxazol-3-yl)acetamide]
< 5	< 5	Cn1ccc2ncc(-c3ccc(CC(=O)Nc4cc(C5(C(F)(F)F)CC5)on4)cc3)nc21 [Example 9, 2-(4-(5-methyl-5H-pyrrolo[2,3-b]pyrazin-3-yl)phenyl)-N-(5-(1-(trifluoromethyl)cyclopropyl)isoxazol-3-yl)acetamide]
< 5	< 5	O=C(Cc1ccc(-c2cnc3ccsc3c2)cc1)Nc1cc(C2(C(F)(F)F)CC2)on1 [Example 10, 2-(4-(thieno[3,2-b]pyridin-6-yl)phenyl)-N-(5-(1-(trifluoromethyl)cyclopropyl)isoxazol-3-yl)acetamide]
< 5	< 5	O=C(Cc1ccc(-c2cnc3cccnc3c2)cc1)Nc1cc(C2(C(F)(F)F)CC2)on1 [Example 11, 2-(4-(1,5-naphthyridin-3-yl)phenyl)-N-(5-(1-(trifluoromethyl)cyclopropyl)isoxazol-3-yl)acetamide]
< 5	< 5	O=C(Cc1ccc(-c2cnc3ccncc3c2)cc1)Nc1cc(C2(C(F)(F)F)CC2)on1 [Example 12, 2-(4-(1,6-naphthyridin-3-yl)phenyl)-N-(5-(1-(trifluoromethyl)cyclopropyl)isoxazol-3-yl)acetamide]
< 5	5 to 20	COc1cc(OC)c2cc(-c3ccc(CC(=O)Nc4cc(C5(C(F)(F)F)CC5)on4)cc3)cnc2c1 [Example 13, 2-(4-(5,7-dimethoxyquinolin-3-yl)phenyl)-N-(5-(1-(trifluoromethyl)cyclopropyl)isoxazol-3-yl)acetamide]
< 5	< 5	O=C(Cc1ccc(-c2cnc3[nH]cnc3n2)cc1)Nc1cc(C2(C(F)(F)F)CC2)on1 [Example 14, 2-(4-(1H-imidazo[4,5-b]pyrazin-5-yl)phenyl)-N-(5-(1-(trifluoromethyl)cyclopropyl)isoxazol-3-yl)acetamide]
< 5	< 5	COc1cc2nc(-c3ccc(CC(=O)Nc4cc(C5(C(F)(F)F)CC5)on4)c(F)c3)cnc2cc1OCCN1CCN(C)CC1 [Example 81, 2-(2-fluoro-4-(7-methoxy-6-(2-(4-methylpiperazin-1-yl)ethoxy)quinoxalin-2-yl)phenyl)-N-(5-(1-(trifluoromethyl)cyclopropyl)isoxazol-3-yl)acetamide]
< 5	< 5	COc1cc2nc(-c3ccc(CC(=O)Nc4cc(C5(C(F)(F)F)CC5)on4)c(F)c3)cnc2cc1OCCN1CCC(F)(F)C1 [Example 82, 2-(4-(6-(2-(3,3-difluoropyrrolidin-1-yl)ethoxy)-7-methoxyquinoxalin-2-yl)-2-fluorophenyl)-N-(5-(1-(trifluoromethyl)cyclopropyl)isoxazol-3-yl)acetamide]
< 5	< 5	COc1cc2nc(-c3ccc(CC(=O)Nc4cc(C5(C(F)(F)F)CC5)on4)c(F)c3)cnc2cc1Br [Example 83, 2-(4-(6-bromo-7-methoxyquinoxalin-2-yl)-2-fluorophenyl)-N-(5-(1-(trifluoromethyl)cyclopropyl)isoxazol-3-yl)acetamide]
< 5	< 5	COc1cc2nc(-c3ccc(CC(=O)Nc4cc(C5(C(F)(F)F)CC5)on4)c(F)c3)cnc2cc1CC(O)CO (centres unmarked) [Example 84, 2-(4-(6-(2,3-dihydroxypropyl)-7-methoxyquinoxalin-2-yl)-2-fluorophenyl)-N-(5-(1-(trifluoromethyl)cyclopropyl)isoxazol-3-yl)acetamide]
< 5	< 5	COc1cc2nc(-c3ccc(CC(=O)Nc4cc(C5(C(F)(F)F)CC5)on4)c(F)c3)cnc2cc1NCCN1CCOCC1 [Example 85, 2-(2-fluoro-4-(7-methoxy-6-((2-morpholinoethyl)amino)quinoxalin-2-yl)phenyl)-N-(5-(1-(trifluoromethyl)cyclopropyl)isoxazol-3-yl)acetamide]
–	< 5	COc1cc2nc(-c3ccc(CC(=O)Nc4cc(C(C)(C)C)on4)c(F)c3)cnc2cc1OCCN1CCOCC1 [Example 92, N-(5-(tert-butyl)isoxazol-3-yl)-2-(2-fluoro-4-(7-methoxy-6-(2-morpholinoethoxy)quinoxalin-2-yl)phenyl)acetamide]
< 5	< 5	COc1cc2nc(-c3ccc(CC(=O)Nc4cc(C(C)(C)C(F)(F)F)on4)cc3)cnc2cc1OCCN1CCOCC1 [Example 93, 2-(4-(7-methoxy-6-(2-morpholinoethoxy)quinoxalin-2-yl)phenyl)-N-(5-(1,1,1-trifluoro-2-methylpropan-2-yl)isoxazol-3-yl)acetamide]
< 5	< 5	COc1cc2nc(-c3ccc(CC(=O)Nc4cc(C5(C(F)(F)F)CC5)on4)c(F)c3)cnc2cc1OCCN1CCOCC1(C)C [Example 96, 2-(4-(6-(2-(3,3-dimethylmorpholino)ethoxy)-7-methoxyquinoxalin-2-yl)-2-fluorophenyl)-N-(5-(1-(trifluoromethyl)cyclopropyl)isoxazol-3-yl)acetamide]
< 5	< 5	CCN1CCN(CCOc2cc3ncc(-c4ccc(CC(=O)Nc5cc(C6(C(F)(F)F)CC6)on5)c(F)c4)nc3cc2OC)CC1 [Example 105, 2-[4-[6-[2-(4-ethylpiperazin-1-yl)ethoxy]-7-methoxy-quinoxalin-2-yl]-2-fluoro-phenyl]-N-[5-[1-(trifluoromethyl)cyclo-propyl]isoxazol-3-yl]acetamide]
< 5	< 5	COc1cc2ncc(-c3ccc(CC(=O)Nc4cc(C5(C(F)(F)F)CC5)nn4C)c(F)c3)nc2cc1OC [Example 172, 2-[4-(6,7-dimethoxyquinoxalin-2-yl)-2-fluoro-phenyl]-N-[2-methyl-5-[1-(trifluoro-methyl)cyclopropyl]pyrazol-3-yl]acetamide]
5 to 20	> 50	COc1cc2ncc(-c3ccc(CC(=O)Nc4cc(C5(C(F)(F)F)CC5)nn4C(C)(C)C)c(F)c3)nc2cc1OC [Example 173, N-[2-tert-butyl-5-[1-(trifluoromethyl)cyclo-propyl]pyrazol-3-yl]-2-[4-(6,7-dimethoxy-quinoxalin-2-yl)-2-fluoro-phenyl]acetamide]
< 5	< 5	COc1cc2nc(-c3ccc(CC(=O)Nc4cc(C5(C(F)(F)F)CC5)on4)c(F)c3)cnc2cc1OCCN1CC(C)OC(C)C1 (centres unmarked) [Example 174, 2-[4-[6-[2-(2,6-dimethylmorpholin-4-yl)ethoxy]-7-methoxy-quinoxalin-2-yl]-2-fluoro-phenyl]-N-[5-[1-(trifluoro-methyl)cyclo-propyl]isoxazol-3-yl]acetamide]
< 5	< 5	CNCCOc1cc2ncc(-c3ccc(CC(=O)Nc4cc(C5(C(F)(F)F)CC5)on4)c(F)c3)nc2cc1OC [Example 175, 2-[2-fluoro-4-[7-methoxy-6-[2-(methyl-amino)ethoxy]quinoxalin-2-yl]phenyl]-N-[5-[1-(trifluoro-methyl)cyclo-propyl]isoxazol-3-yl]acetamide]
< 5	< 5	COc1cc2nc(-c3ccc(CC(=O)Nc4cc(C5(C(F)(F)F)CC5)on4)c(F)c3)cnc2cc1OCCN(C)C(C)=O [Example 176, 2-[4-[6-[2-[acetyl(methyl)amino]ethoxy]-7-methoxy-quinoxalin-2-yl]-2-fluoro-phenyl]-N-[5-[1-(trifluoromethyl)cyclo-propyl]isoxazol-3-yl]acetamide]
< 5	< 5	COCCOc1cc2cc(-c3ccc(CC(=O)Nc4cc(C(C)(C)C(F)(F)F)on4)c(F)c3)cnc2cc1OC [Example 177, 2-[2-fluoro-4-[7-methoxy-6-(2-methoxyethoxy)-3-quinolyl]phenyl]-N-[5-(2,2,2-trifluoro-1,1-dimethyl-ethyl)isoxazol-3-yl]acetamide]
< 5	< 5	COc1cc2ncc(-c3ccc(CC(=O)Nc4cc(C(C)(C)C(F)(F)F)on4)c(F)c3)cc2cc1OCCO [Example 178, 2-[2-fluoro-4-[6-(2-hydroxyethoxy)-7-methoxy-3-quinolyl]phenyl]-N-[5-(2,2,2-trifluoro-1,1-dimethyl-ethyl)isoxazol-3-yl]acetamide]
< 5	< 5	COc1cc2ncc(-c3ccc(CC(=O)Nc4cc(C5(C(F)(F)F)CC5)on4)c(F)c3)cc2cc1OCCO [Example 179, 2-[2-fluoro-4-[6-(2-hydroxyethoxy)-7-methoxy-3-quinolyl]phenyl]-N-[5-[1-(trifluoromethyl)cyclo-propyl]isoxazol-3-yl]acetamide]

Structure (SMILES)	Kd [1] [nM]	Kd [2] [nM]
COc1cc2nc(-c3ccc(CC(=O)Nc4cc(C(C)(C)C(F)(F)F)on4)c(F)c3)cnc2cc1OCCN1CCOCC1 [Example 171, 2-[2-fluoro-4-[7-methoxy-6-(2-morpholino-ethoxy)quinoxalin-2-yl]phenyl]-N-[5-(2,2,2-trifluoro-1,1-dimethyl-ethyl)isoxazol-3-yl]acetamide]	–	< 5
